From patent US7863449B2, “Modulators of muscarinic receptors” (Vertex Pharmaceuticals Incorporated, priority 2004, dated 2011) come the findings set out here.

Where a name gives a salt, the structure may show the parent alone.

One experiment concerns the target T1, M1 muscarinic receptor (Homo sapiens, UniProt P11229).
T1 construct: expressed in transfected cells; host or cells: CHO (M1-CHO)
T1 sequence (P11229 1-460): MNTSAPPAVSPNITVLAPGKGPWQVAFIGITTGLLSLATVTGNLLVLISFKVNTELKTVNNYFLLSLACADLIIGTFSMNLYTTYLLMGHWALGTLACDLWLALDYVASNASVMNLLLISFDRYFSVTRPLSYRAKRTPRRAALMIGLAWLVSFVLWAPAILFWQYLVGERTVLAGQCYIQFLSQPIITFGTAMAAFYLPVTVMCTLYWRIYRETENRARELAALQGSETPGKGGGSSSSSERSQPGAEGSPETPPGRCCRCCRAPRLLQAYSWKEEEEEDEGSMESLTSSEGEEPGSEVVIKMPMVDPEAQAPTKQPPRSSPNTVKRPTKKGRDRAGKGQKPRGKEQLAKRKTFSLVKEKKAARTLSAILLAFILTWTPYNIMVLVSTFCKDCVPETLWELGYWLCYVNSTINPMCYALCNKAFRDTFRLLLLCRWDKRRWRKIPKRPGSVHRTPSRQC
Nature of the experiment: Functional mobilization of intracellular calcium (FLIPR), M1-CHO cells. The experiment is classed as cell-based. As to conditions: for Emax: 100% efficacy is the maximum response obtained using Carbachol as a control; for M1 Activity: M1-CHO cells, FLIPR calcium mobilization. The method in brief: (§1)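 Calcium flux recorded 60 s (ex 488, em 540 nm) in dye-loaded M1- or M4-CHO cells in pH 7.4 buffer with 1 mM probenecid. Inhibition measured against carbachol EC80 after 15 min compound pre-incubation or co-addition; agonism measured by compound addition alone. Final DMSO 0.5%.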
In general terms: Calcium flux is commonly read through the fluorescence of an indicator in the cells.

The target of a further experiment is T2, M4 muscarinic receptor (Homo sapiens, UniProt P08173).
T2 construct: expressed in transfected cells; host or cells: CHO (M4-CHO)
T2 sequence (P08173 1-479): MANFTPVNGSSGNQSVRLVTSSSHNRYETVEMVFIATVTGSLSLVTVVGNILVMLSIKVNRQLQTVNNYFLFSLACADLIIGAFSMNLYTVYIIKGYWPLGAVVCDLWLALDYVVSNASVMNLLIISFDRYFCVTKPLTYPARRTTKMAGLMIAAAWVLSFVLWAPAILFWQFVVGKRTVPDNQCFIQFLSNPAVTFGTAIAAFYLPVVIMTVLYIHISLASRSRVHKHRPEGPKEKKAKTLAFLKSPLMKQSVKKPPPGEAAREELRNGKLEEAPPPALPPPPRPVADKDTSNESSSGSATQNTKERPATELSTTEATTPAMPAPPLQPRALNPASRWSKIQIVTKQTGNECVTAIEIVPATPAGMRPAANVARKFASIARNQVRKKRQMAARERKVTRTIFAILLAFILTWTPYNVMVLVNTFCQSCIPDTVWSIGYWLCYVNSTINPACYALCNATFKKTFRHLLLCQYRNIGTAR
As to the kind of experiment: Functional mobilization of intracellular calcium (FLIPR), M4-CHO cells. The format is cell-based. The conditions noted are these: for Emax: 100% efficacy is the maximum response obtained using Carbachol as a control; for M4 Activity: M4-CHO cells, FLIPR calcium mobilization. In a few lines:
as §1

Turning to `CCOC(=O)N1C2CCC1CC(N1CCC3(CC1)CN(S(=O)(=O)c1ccc(F)cc1)Cc1ccccc13)C2` (stereo not drawn) [compound 205, Ethyl 3-(2-(4-fluorophenylsulfonyl)-2,3-dihydro-1H-spiro-[isoquinoline-4,4′-piperidine]-1′-yl)-8-azabicyclo[3.2.1]-octane-8-carboxylate hydrochloride], on M1 muscarinic receptor, the Emax lay within 25 to 100% and the “M1 Activity” value is “+++ (activity was measured to be less than 1.0 μM)”. Moreover, at M4 muscarinic receptor, the Emax fell in the range of 25 to 100% and the “M4 Activity” value was “+++ (activity was measured to be less than 1.0 μM)”.
Take `COC(=O)N1Cc2ccccc2C2(CCN(C3CC4CCC(C3)N4C(=O)OC(C)C)CC2)C1` (stereo not drawn) [compound 206]: on M1 muscarinic receptor, the Emax lay within 25 to 100% and the “M1 Activity” value is given as “+++ (activity was measured to be less than 1.0 μM)”. Moreover, at M4 muscarinic receptor, the Emax is 25 to 100% and the “M4 Activity” value was “+++ (activity was measured to be less than 1.0 μM)”.
On to `COCCOC(=O)N1CCC(CN2CCC3(CC2)CN(C(C)=O)Cc2ccccc23)CC1` [compound 207], for which, on M1 muscarinic receptor, the Emax was in the range of 25 to 100% and the “M1 Activity” value was “+ (activity was measured to be greater than 5.0 μM)”. Besides, on M4 muscarinic receptor, the Emax was in the range of 25 to 100% and the “M4 Activity” value is on record as “++ (activity was measured to be from 1.0 μM to 5.0 μM)”.
Turning to `CCOC(=O)N1CCC(CN2CCC3(CC2)CN(C(=O)C2CC2)Cc2ccccc23)CC1` [compound 208], on M1 muscarinic receptor, the Emax was 25 to 100% and the “M1 Activity” value was “+++ (activity was measured to be less than 1.0 μM)”. At M4 muscarinic receptor, the Emax lay in the range of 25 to 100% and the “M4 Activity” value is “+++ (activity was measured to be less than 1.0 μM)”.
With `CCOC(=O)N1CCC(N2CCC3(CC2)CN(C(=O)CC(F)(F)F)Cc2ccccc23)CC1` [compound 209], at M1 muscarinic receptor, the Emax was 25 to 100% and the “M1 Activity” value is reported as “+++ (activity was measured to be less than 1.0 μM)”. At M4 muscarinic receptor, the Emax was 25 to 100% and the “M4 Activity” value is given as “+++ (activity was measured to be less than 1.0 μM)”.
On to `Cc1cc(C(=O)N2Cc3ccccc3C3(CCN(C4CC5CCC(C4)N5C(=O)O[C@@H]4CCOC4)CC3)C2)nn1C` (stereo partly drawn) [compound 210], for which, at M1 muscarinic receptor, the Emax lay in the range of 25 to 100% and the “M1 Activity” value is recorded as “+++ (activity was measured to be less than 1.0 μM)”. On M4 muscarinic receptor, the Emax is 25 to 100% and the “M4 Activity” value is “+++ (activity was measured to be less than 1.0 μM)”.
Turning to `CCOC(=O)N1CCC(N2CCC3(CC2)CN(C(=O)N2CCCCC2)Cc2ccccc23)CC1` [compound 211], on M1 muscarinic receptor, the Emax fell in the range of 25 to 100% and the “M1 Activity” value is “+++ (activity was measured to be less than 1.0 μM)”. Besides, on M4 muscarinic receptor, the Emax was under 25% and the “M4 Activity” value is “+ (activity was measured to be greater than 5.0 μM)”.
Regarding `O=C(OC1CCC1)N1Cc2ccccc2C2(CCN(C3CC4CCC(C3)N4C(=O)O[C@H]3CCOC3)CC2)C1` (stereo partly drawn) [compound 212], the “M1 Activity” value at M1 muscarinic receptor is reported as “+++ (activity was measured to be less than 1.0 μM)”. On M4 muscarinic receptor, the “M4 Activity” value is “+++ (activity was measured to be less than 1.0 μM)”.
On to `CCOC(=O)N1C2CCC1CC(N1CCC3(CC1)CN(C(=O)c1cnoc1C)Cc1ccccc13)C2` (stereo not drawn) [compound 213], for which, on M1 muscarinic receptor, the Emax is 25 to 100% and the “M1 Activity” value was “+++ (activity was measured to be less than 1.0 μM)”. At M4 muscarinic receptor, the Emax was in the range of 25 to 100% and the “M4 Activity” value was “+++ (activity was measured to be less than 1.0 μM)”.
For `CCOC(=O)N1CCC(CN2CCC3(CC2)CN(C(=O)c2ccno2)Cc2ccccc23)CC1` [compound 214], on M1 muscarinic receptor, the Emax was in the range of 25 to 100% and the “M1 Activity” value is listed as “+++ (activity was measured to be less than 1.0 μM)”. Besides, at M4 muscarinic receptor, the Emax was 25 to 100% and the “M4 Activity” value is listed as “+++ (activity was measured to be less than 1.0 μM)”.
`CC(=O)N1Cc2ccccc2C2(CCN(C3CCOCC3)CC2)C1` [compound 215]: on M1 muscarinic receptor, the Emax was in the range of 25 to 100% and the “M1 Activity” value is on record as “++ (activity was measured to be from 1.0 μM to 5.0 μM)”. Also, on M4 muscarinic receptor, the Emax lay in the range of 25 to 100% and the “M4 Activity” value was “+ (activity was measured to be greater than 5.0 μM)”.

The term Emax denotes the size of the effect at its maximum, as opposed to the concentration needed.
